Seven compounds from ChEMBL document CHEMBL5331108, “Design and Synthesis of 4-Fluorophenyl-5-methylene-2(5H)-furanone Derivatives as Potent Quorum Sensing Inhibitors” (J Med Chem, 2023) can be followed below.

In brackets after ≈: the same amount, converted by molar mass.

The subject of the first experiment is Bacillus subtilis. In words: Antibacterial activity against penicillin-susceptible Bacillus subtilis ATCC9372 assessed as inhibition of bacterial growth incubated for 20 hrs by CLSI protocol based microdilution method. The class given is functional.
Take `C=C1C(c2ccc(F)cc2)=C(CNC(=O)c2ccc(C)cc2)C(=O)N1c1cccc(Cl)c1`: the MIC is over 512 µg/mL.

For `C=C1OC(=O)C(CNC(=O)c2ccc(C)cc2)=C1c1ccc(Br)cc1`, the MIC is over 512 µg/mL.

As to `C=C1C(c2ccc(F)cc2)=C(CNC(=O)c2ccc(C)cc2)C(=O)N1CCCC`, the MIC was over 512 µg/mL.

For `C=C1OC(=O)C(CNC(=O)c2ccc(C)cc2)=C1c1ccccc1F`, the MIC was over 512 µg/mL.

Consider `C=C1OC(=O)C(CNC(=O)c2cccc(F)c2)=C1c1ccc(F)cc1`, for which the MIC is over 512 µg/mL.

With `C=C1OC(=O)C(CNC(=O)c2ccccc2C)=C1c1ccc(F)cc1`, the MIC was 128 µg/mL (≈ 379 µM).

On to `C=C1C(c2ccc(F)cc2)=C(CNC(=O)c2ccc(C)cc2)C(=O)N1CCC`, for which the MIC is over 512 µg/mL.

For the next experiment, the system named is Bacillus pumilus. Kind of experiment: Antibacterial activity against penicillin-susceptible Bacillus pumilus CMCC63202 assessed as inhibition of bacterial growth incubated for 20 hrs by CLSI protocol based microdilution method. The class given is functional.
`C=C1C(c2ccc(F)cc2)=C(CNC(=O)c2ccc(C)cc2)C(=O)N1c1cccc(Cl)c1`: the MIC amounted to 512 µg/mL (≈ 1150 µM).

Consider `C=C1OC(=O)C(CNC(=O)c2ccc(C)cc2)=C1c1ccc(Br)cc1`, for which the MIC was over 512 µg/mL.

As to `C=C1C(c2ccc(F)cc2)=C(CNC(=O)c2ccc(C)cc2)C(=O)N1CCCC`, the MIC is over 512 µg/mL.

Regarding `C=C1OC(=O)C(CNC(=O)c2ccc(C)cc2)=C1c1ccccc1F`, the MIC was over 512 µg/mL.

For the compound `C=C1OC(=O)C(CNC(=O)c2cccc(F)c2)=C1c1ccc(F)cc1`, the MIC was over 512 µg/mL.

On to `C=C1OC(=O)C(CNC(=O)c2ccccc2C)=C1c1ccc(F)cc1`, for which the MIC is 32 µg/mL (≈ 94.9 µM).

`C=C1C(c2ccc(F)cc2)=C(CNC(=O)c2ccc(C)cc2)C(=O)N1CCC`: the MIC was 512 µg/mL (≈ 1350 µM).

The test system of another experiment is Staphylococcus aureus. Kind of experiment: Antibacterial activity against erthromycin-susceptible Staphylococcus aureus ATCC25923 assessed as inhibition of bacterial growth incubated for 20 hrs by CLSI protocol based microdilution method. It counts as functional.
Take `C=C1C(c2ccc(F)cc2)=C(CNC(=O)c2ccc(C)cc2)C(=O)N1c1cccc(Cl)c1`: the MIC is over 512 µg/mL.

On to `C=C1OC(=O)C(CNC(=O)c2ccc(C)cc2)=C1c1ccc(Br)cc1`, for which the MIC is over 512 µg/mL.

In the case of `C=C1C(c2ccc(F)cc2)=C(CNC(=O)c2ccc(C)cc2)C(=O)N1CCCC`, the MIC was over 512 µg/mL.

With `C=C1OC(=O)C(CNC(=O)c2ccc(C)cc2)=C1c1ccccc1F`, the MIC is over 512 µg/mL.

On to `C=C1OC(=O)C(CNC(=O)c2cccc(F)c2)=C1c1ccc(F)cc1`, for which the MIC was over 512 µg/mL.

Consider `C=C1OC(=O)C(CNC(=O)c2ccccc2C)=C1c1ccc(F)cc1`, for which the MIC is 32 µg/mL (≈ 94.9 µM).

Regarding `C=C1C(c2ccc(F)cc2)=C(CNC(=O)c2ccc(C)cc2)C(=O)N1CCC`, the MIC was over 512 µg/mL.

A further experiment relates to Staphylococcus aureus. In words: Antibacterial activity against methicillin-resistant Staphylococcus aureus ATCC43300 assessed as inhibition of bacterial growth incubated for 20 hrs by CLSI protocol based microdilution method. The class given is functional.
With `C=C1C(c2ccc(F)cc2)=C(CNC(=O)c2ccc(C)cc2)C(=O)N1c1cccc(Cl)c1`, the MIC is over 512 µg/mL.

`C=C1OC(=O)C(CNC(=O)c2ccc(C)cc2)=C1c1ccc(Br)cc1`: the minimum inhibitory concentration (MIC) is over 512 µg/mL.

Take `C=C1C(c2ccc(F)cc2)=C(CNC(=O)c2ccc(C)cc2)C(=O)N1CCCC`: the MIC was over 512 µg/mL.

`C=C1OC(=O)C(CNC(=O)c2ccc(C)cc2)=C1c1ccccc1F`: the MIC is over 512 µg/mL.

Regarding `C=C1OC(=O)C(CNC(=O)c2cccc(F)c2)=C1c1ccc(F)cc1`, the MIC is over 512 µg/mL.

Turning to `C=C1OC(=O)C(CNC(=O)c2ccccc2C)=C1c1ccc(F)cc1`, the MIC turned out to be 64 µg/mL (≈ 190 µM).

With `C=C1C(c2ccc(F)cc2)=C(CNC(=O)c2ccc(C)cc2)C(=O)N1CCC`, the MIC was over 512 µg/mL.

For a further experiment, the system named is Pseudomonas aeruginosa. In words: Antibacterial activity against penicillin-susceptible Pseudomonas aeruginosa ATCC27853 assessed as inhibition of bacterial growth incubated for 20 hrs by CLSI protocol based microdilution method. The class given is functional.
Consider `C=C1C(c2ccc(F)cc2)=C(CNC(=O)c2ccc(C)cc2)C(=O)N1c1cccc(Cl)c1`, for which the MIC is over 512 µg/mL.

Take `C=C1OC(=O)C(CNC(=O)c2ccc(C)cc2)=C1c1ccc(Br)cc1`: the MIC is over 512 µg/mL.

For the compound `C=C1C(c2ccc(F)cc2)=C(CNC(=O)c2ccc(C)cc2)C(=O)N1CCCC`, the MIC is over 512 µg/mL.

As for `C=C1OC(=O)C(CNC(=O)c2ccc(C)cc2)=C1c1ccccc1F`, the MIC was over 512 µg/mL.

Take `C=C1OC(=O)C(CNC(=O)c2cccc(F)c2)=C1c1ccc(F)cc1`: the MIC was over 512 µg/mL.

As for `C=C1OC(=O)C(CNC(=O)c2ccccc2C)=C1c1ccc(F)cc1`, the MIC was over 512 µg/mL.

For the compound `C=C1C(c2ccc(F)cc2)=C(CNC(=O)c2ccc(C)cc2)C(=O)N1CCC`, the MIC was determined as 256 µg/mL (≈ 676 µM).

In another experiment the test system is Escherichia coli. Kind of experiment: Antibacterial activity against penicillin-susceptible Escherichia coli ATCC25922 assessed as inhibition of bacterial growth incubated for 20 hrs by CLSI protocol based microdilution method. The class given is functional.
On to `C=C1C(c2ccc(F)cc2)=C(CNC(=O)c2ccc(C)cc2)C(=O)N1c1cccc(Cl)c1`, for which the MIC is over 512 µg/mL.

As to `C=C1OC(=O)C(CNC(=O)c2ccc(C)cc2)=C1c1ccc(Br)cc1`, the MIC was over 512 µg/mL.

Turning to `C=C1C(c2ccc(F)cc2)=C(CNC(=O)c2ccc(C)cc2)C(=O)N1CCCC`, the MIC is over 512 µg/mL.

Take `C=C1OC(=O)C(CNC(=O)c2ccc(C)cc2)=C1c1ccccc1F`: the MIC was over 512 µg/mL.

Take `C=C1OC(=O)C(CNC(=O)c2cccc(F)c2)=C1c1ccc(F)cc1`: the MIC is over 512 µg/mL.

`C=C1OC(=O)C(CNC(=O)c2ccccc2C)=C1c1ccc(F)cc1`: the MIC was over 512 µg/mL.

Turning to `C=C1C(c2ccc(F)cc2)=C(CNC(=O)c2ccc(C)cc2)C(=O)N1CCC`, the MIC is over 512 µg/mL.

Another experiment concerns Pseudomonas aeruginosa. In words: Antibacterial activity against wild type Pseudomonas aeruginosa […] CGMCC1.12483 assessed as inhibition of bacterial growth incubated for 20 hrs by CLSI protocol based microdilution method. It counts as functional.
In the case of `C=C1C(c2ccc(F)cc2)=C(CNC(=O)c2ccc(C)cc2)C(=O)N1c1cccc(Cl)c1`, the MIC was found to be 512 µg/mL (≈ 1150 µM).

Regarding `C=C1OC(=O)C(CNC(=O)c2ccc(C)cc2)=C1c1ccc(Br)cc1`, the MIC was over 512 µg/mL.

Turning to `C=C1C(c2ccc(F)cc2)=C(CNC(=O)c2ccc(C)cc2)C(=O)N1CCCC`, the MIC was over 512 µg/mL.

As to `C=C1OC(=O)C(CNC(=O)c2ccc(C)cc2)=C1c1ccccc1F`, the MIC was over 512 µg/mL.

For `C=C1OC(=O)C(CNC(=O)c2cccc(F)c2)=C1c1ccc(F)cc1`, the minimal inhibitory concentration (MIC) is over 512 µg/mL.

As for `C=C1OC(=O)C(CNC(=O)c2ccccc2C)=C1c1ccc(F)cc1`, the MIC is over 512 µg/mL.

For `C=C1C(c2ccc(F)cc2)=C(CNC(=O)c2ccc(C)cc2)C(=O)N1CCC`, the MIC is 512 µg/mL (≈ 1350 µM).
